# Assay results as given in article PMC12676205, “New Se‐Compounds With Antileishmanial, Antitumor, and Carbonic Anhydrase Inhibitory Properties” (Archiv Der Pharmazie, 2025).
# Read-outs that look alike come from different tables or passages of the source.
# Tests used:
# Melanoma subpanel = experiment: NCI-60 five-dose assay, melanoma subpanel; format: cell-based; conditions: Homo sapiens, 48 h; for GI50: read-out: Mean GI50 Melanoma; for LC50 (50% lethal concentration): read-out: Mean LC50 Melanoma
# Description: (§1) All the compounds were selected for further testing since they fulfilled the set NCI one‐dose screening parameters for threshold inhibition. They were tested at five different concentrations (0.01, 0.1, 1, 10, and 100 μM) for 48 h against the same cell line panel and the dose–response curves along with three response parameters (50% growth inhibitory concentration [GI50], the 50% lethal concentration [LC50], and the total growth inhibition [TGI]) were calculated for every cancer cell line. The full reported data and corresponding graphs are compiled in Supporting Information S1. Average values of GI50, TGI, and LC50 values of all the reported selenoesters in all the subpanels are represented in Figure 4.
# (§2) All the reported selenoesters (1–6) were submitted to the DTP of NCI. First, they were screened at a single dose (10^−5 M) against a panel of 60 cancer cell lines derived from different tumor types following the methodology available (https://dtp.cancer.gov/discovery_development/nci-60/methodology.htm). As all the compounds satisfied the threshold inhibition criteria established, they were further assessed at five concentrations (0.01, 0.1, 1, 10, and 100 µM) against the same cell panel to obtain their corresponding dose–response curves and three antitumor parameters (GI50, TGI, and LC50) by regression. GraphPad Prism 7.0 Software was used to represent the corresponding graphs.
# [1] = system: NSCL (non‐small‐cell lung cancer) subpanel; experiment: NCI-60 one-dose screen, NSCL subpanel; format: cell-based, human; conditions: 10 µM, 48 h
# Description: (§3) To explore the potential antiproliferative properties of the newly synthesized derivatives, they were submitted to the National Cancer Institute's (NCI) Developmental Therapeutics Program (DTP) for screening at 10 μM in a panel of approximately 60 human cancer cell lines from different cancer types. The results are reported as the growth percentage (GP), which is the growth of the treated cells with each compound for 48 h compared to the untreated controls (Figure 2). […] The initial screening results are summarized in Figure 2, and the mean GP values of each subpanel are depicted in Figure 3. The full reports are compiled in the Supplementary Section.
# as §2
# Colon subpanel [2] = experiment: NCI-60 five-dose assay, colon subpanel; format: cell-based; conditions: Homo sapiens, 48 h; for GI50: read-out: Mean GI50 Colon; for CC50: read-out: Mean LC50 Colon
# Description: as §1, §2
# CNS subpanel [3] = experiment: NCI-60 one-dose screen, CNS subpanel; format: cell-based, human; conditions: 10 µM, 48 h
# Description: as §3, §2
# Colon subpanel [4] = experiment: NCI-60 one-dose screen, colon subpanel; format: cell-based, human; conditions: 10 µM, 48 h
# Description: as §3, §2
# HaCaT cells = experiment: MTS cell viability assay in nonmalignant HaCaT cells; format: cell-based, human; conditions: 48 h, mean ± SD
# Description: (MTS) assay as previously described. Thus, the selenoesters were tested at seven different concentrations (1, 2.5, 5, 10, 25, 50, and 100 µM) during 48 h to determine their corresponding IC50 values.
# The effect of each compound on the cell viability of HaCaT cells was tested using the MTS assay. The compounds (1–6) were dissolved in DMSO at a concentration of 10^−2 M, and serial dilutions were prepared. Briefly, the cells were seeded in a 96‐well plate at a density of 1 × 10^4 cells per well. After 24 h of incubation, the cells were treated with either DMSO or seven different concentrations of each selenoester (1, 2.5, 5, 10, 25, 50, and 100 µM) for 48 h in triplicate. At the end of the treatment duration, the media were removed and fresh media were added containing 20 μL of MTS (Promega, USA) per well. After 1 h incubation, the absorbances were read at a wavelength of 490 nm in a 96‐well multiscanner, and the ratio of viable cells was calculated. Data were obtained from at least three independent experiments performed in triplicate. The IC50 values were calculated using OriginPro 8.5.1 Software for nonlinear curve fitting, and Graphpad Prism 7.0 Software was used to represent the corresponding graphs.
# L. major promastigotes = experiment: Leishmanicidal activity against promastigotes (MTT), L. major; format: cell-based, Leishmania major
# Description: The synthesized compounds were tested for their antileishmanial activity against promastigotes of L. major and L. infantum at four concentrations (1, 10, 50, and 100 µM) for 48 h using the 3‐(4,5‐dimethylthiazol‐2‐yl)‐2,5‐diphenyltetrazolium bromide (MTT) assay. In this evaluation, the activity was expressed in IC50 (concentration inhibiting the parasite growth by 50%). […] The CC50 was defined as the concentration of selenoesters that led to a reduction in the viability of the macrophages, such that only 50% of the cells survived when compared to the control group. This cell line, derived from the blood of a human with acute monocytic leukemia, was chosen as it has been widely reported that it resembles tissue macrophages to various extents as well as supports the infection by numerous Leishmania promastigotes. The selectivity indexes (SIs) were calculated as the ratio between toxicity on macrophages (THP‐1 cells)/antileishmanial activity. The data for standard control drugs (miltefosine and paromomycin) are included for comparison purposes.
# The promastigotes of L. major (clone VI, MHOM/IL/80/Friendlin) and L. infantum (BCN‐150) were grown at 26°C under continuous shaking in M199 1× medium (Sigma, USA). This media was supplemented with 10% of heat‐inactivated fetal bovine serum (FBS) (Gibco, USA), 0.0005% (w/v) hemin, 0.1 mM adenine, 25 mM HEPES (pH 7.2), 0.0001% (w/v) biotin, and 100 UI/mL penicillin and […] streptomycin (Gibco, USA).
# The antileishmanial activity of the reported selenoesters was determined using the MTT assay as previously described during the logarithmic growth phase of the tested promastigotes of L. major and L. infantum. Briefly, the Leishmania parasites were seeded into 96‐well flat‐bottom plates (3 × 10^5 parasites/100 µL) and treated with four different concentrations ranging between 1 and 100 µM of each selenoester at 26°C for 48 h. Afterwards, 20 µL of MTT (5 mg/mL in PBS) was added to each well and incubated for 4 h under the same conditions. Then, 80 µL/well of DMSO was added to dissolve the resultant formazan crystals. The absorbances were determined on a Multiskan EX photometric plate reader for microplates at 540 nm. Three independent experiments performed in triplicate were carried out for each compound, and OriginPro 8.5.1 Software was used to calculate the IC50 values by fitting the data to a dose–inhibition sigmoid curve.
# hCA II = molecular target: T1, hCA II (Homo sapiens, UniProt P00918); experiment: hCA II inhibition, stopped-flow CO2 hydration assay; format: biochemical; conditions: stopped flow technique, mean from three assays
# T1 construct: made in house
# Description: (§4) An Applied Photophysics stopped‐flow instrument was used to assay the CA‐catalyzed CO2 hydration activity [52]. […] The uncatalyzed rates were determined in the same manner and subtracted from the total observed rates. Stock solutions of the inhibitor (0.1 mM) were prepared in distilled–deionized water, and dilutions up to 0.01 nM were done thereafter with the assay buffer. Inhibitor and enzyme solutions were preincubated together for 15 min at room temperature before the assay, to allow for the formation of the E–I complex. The inhibition constants were obtained by Nonlinear least‐squares methods using PRISM 3 and the Cheng‐Prusoff equation as reported earlier and represent the mean from at least three different determinations. All CA isoforms were recombinant proteins obtained in‐house, as reported earlier [54, 55, 56].
# hCA XII = molecular target: T2, hCA XII (Homo sapiens, UniProt O43570); experiment: hCA XII inhibition, stopped-flow CO2 hydration assay; format: biochemical; conditions: stopped flow technique, mean from three assays
# T2 construct: made in house
# Description: as §4
# Leukemia subpanel = experiment: NCI-60 one-dose screen, leukemia subpanel; format: cell-based, human; conditions: 10 µM, 48 h
# Description: as §3, §2
# CNS subpanel [5] = experiment: NCI-60 five-dose assay, CNS subpanel; format: cell-based; conditions: Homo sapiens, 48 h; for GI50: read-out: Mean GI50 CNS; for LC50: read-out: Mean LC50 CNS
# Description: as §1, §2
# hCA I = molecular target: T3, hCA I (Homo sapiens, UniProt P00915); experiment: hCA I inhibition, stopped-flow CO2 hydration assay; format: biochemical; conditions: stopped flow technique, mean from three assays
# T3 construct: made in house
# Description: as §4
# [6] = Leishmania major, 48 h, mean ± SD, read-out: L. major IC50
# [7] = 48 h, mean ± SD, read-out: L. major IC50
# [8] = read-out: L. major IC50, 48 h, mean ± SD
# T3 sequence (P00915 whole entry): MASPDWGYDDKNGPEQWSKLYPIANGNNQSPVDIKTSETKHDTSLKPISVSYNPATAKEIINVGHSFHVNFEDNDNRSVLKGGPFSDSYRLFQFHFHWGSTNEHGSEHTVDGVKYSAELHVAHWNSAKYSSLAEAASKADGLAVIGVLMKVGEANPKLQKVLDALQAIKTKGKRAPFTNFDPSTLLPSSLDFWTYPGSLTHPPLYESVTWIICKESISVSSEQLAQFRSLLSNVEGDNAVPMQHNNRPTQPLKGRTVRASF
# T2 sequence (O43570 25-354): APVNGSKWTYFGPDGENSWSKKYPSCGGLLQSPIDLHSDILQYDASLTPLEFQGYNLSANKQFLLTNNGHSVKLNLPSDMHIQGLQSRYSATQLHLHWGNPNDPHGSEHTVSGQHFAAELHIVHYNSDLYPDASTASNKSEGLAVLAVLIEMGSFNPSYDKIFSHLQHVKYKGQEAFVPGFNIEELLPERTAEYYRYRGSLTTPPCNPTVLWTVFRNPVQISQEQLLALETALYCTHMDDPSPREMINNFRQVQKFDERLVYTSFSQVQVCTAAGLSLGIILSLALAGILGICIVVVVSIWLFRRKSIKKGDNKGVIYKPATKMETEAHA
Structure (SMILES),GI50 (Melanoma subpanel),LC50 (50% lethal concentration) (Melanoma subpanel),"average growth cell value, NSCL [1]",GI50 (Colon subpanel [2]),CC50 (Colon subpanel [2]),"average growth cell value, CNS (CNS subpanel [3])","average growth cell value, Colon (Colon subpanel [4])","IC50 (HaCaT cells; Homo sapiens, HaCaT)",IC50 (L. major promastigotes; [6]),Ki (hCA II),Ki (hCA XII),"average growth cell value, Leukemia (Leukemia subpanel)",GI50 (CNS subpanel [5]),LC50 (CNS subpanel [5]),Ki (hCA I),IC50 (HaCaT cells),IC50 (L. major promastigotes; [7]),IC50 (L. major promastigotes; [8])
"N#Cc1ccc(NC(=O)C[Se]C(=O)c2ccccc2)cc1C(F)(F)F [Compound 1, Se‐(2‐((4‐cyano‐3‐(trifluoromethyl)phenyl)amino)‐2‐oxoethyl)benzoselenoate]",1.36 µM,5.49 µM,-96.68%,1.98 µM,6.79 µM,-94.57%,-95.24%,11.8 ± 1.89 µM,26.6 ± 1.81 µM,80.4 µM,51.1 µM,-96.53%,1.37 µM,5.64 µM,> 100 µM,,,
"O=C(C[Se]C(=O)c1ccccc1)Nc1ccc([N+](=O)[O-])c(C(F)(F)F)c1 [Compound 2, Se‐(2‐((4‐nitro‐3‐(trifluoromethyl)phenyl)amino)‐2‐oxoethyl)benzoselenoate]",1.24 µM,5.37 µM,-96.34%,2.11 µM,7.68 µM,-94.42%,-81.88%,9.49 ± 0.42 µM,27.1 ± 3.35 µM,50.4 µM,91.5 µM,-94.69%,1.17 µM,5.17 µM,> 100 µM,,,
"O=C(C[Se]C(=O)c1ccccc1)Nc1cccc(OC(F)(F)F)c1 [Compound 3, Se‐(2‐oxo‐2‐((3‐(trifluoromethoxy)phenyl)amino)ethyl)benzoselenoate]",2.33 µM,13.6 µM,-57.44%,8.52 µM,43.9 µM,-78.56%,25.15%,~64 µM,6 to 10 µM,82.4 µM,17.4 µM,-36.81%,2.07 µM,9 µM,> 100 µM,63.7 ± 4.32 µM,9.67 ± 0.78 µM,< 10 µM
"O=C(C[Se]C(=O)c1ccco1)Nc1ccc([N+](=O)[O-])c(C(F)(F)F)c1 [Compound 5, Se‐(2‐((4‐nitro‐3‐(trifluoromethyl)phenyl)amino)‐2‐oxoethyl)furan‐2‐carboselenoate]",1.7 µM,,-42.46%,2.58 µM,46.5 µM,-59.61%,-17.82%,,18.3 ± 5.9 µM,83.3 µM,72.6 µM,6.59%,2.04 µM,,> 100 µM,,,
"O=C(C[Se]C(=O)c1ccco1)Nc1cccc(OC(F)(F)F)c1 [Compound 6, Se‐(2‐oxo‐2‐((3‐(trifluoromethoxy)phenyl)amino)ethyl)furan‐2‐carboselenoate]",4.95 µM,,-12.41%,7.93 µM,67.3 µM,-34.28%,31.61%,,6 to 10 µM,8.2 µM,9.6 µM,39.71%,3.08 µM,,> 100 µM,,10.1 ± 1.27 µM,< 10 µM
